Among the data in ChEMBL document CHEMBL4431299 (Medchemcomm, 2016) are inhibition and Ki values, retold here.

Activity calls are given as the source filed them. The calls are words filed in the database; no cut-off is given here.

One may read the Ki as a measure of affinity in units of concentration, obtained from inhibition or displacement. Read a low Ki as tighter binding.

Chain of Mitogen-activated protein kinase 14 (Mus musculus) (P47811 whole entry, the tested form may be a part): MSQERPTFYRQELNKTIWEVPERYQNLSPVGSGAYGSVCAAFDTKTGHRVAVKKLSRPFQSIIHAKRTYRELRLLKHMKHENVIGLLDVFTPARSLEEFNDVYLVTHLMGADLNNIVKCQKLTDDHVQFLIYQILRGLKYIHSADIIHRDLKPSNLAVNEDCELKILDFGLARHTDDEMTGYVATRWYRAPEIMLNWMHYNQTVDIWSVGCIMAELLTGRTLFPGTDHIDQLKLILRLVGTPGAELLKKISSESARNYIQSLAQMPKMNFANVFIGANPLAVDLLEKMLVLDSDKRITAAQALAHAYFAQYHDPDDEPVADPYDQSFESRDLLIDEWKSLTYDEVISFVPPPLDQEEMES

One experiment has as its target Mitogen-activated protein kinase 14 (Mus musculus) (UniProt P47811). Description: (§1) Inhibition of kinase tracer 199 binding to mouse inactive p38alpha (2 to 349 residues) expressed in Escherichia coli by microscale thermophoresis assay.
For `COc1ccc(-n2nc(C(C)(C)C)cc2NC(=O)Nc2ccc(Cl)cc2)cc1`, the inhibition result is “Active”. Still for that read-out and setting: the result for `CC(C)(C)c1cc(NC(=O)Nc2ccc(Cl)cc2)n(-c2ccccc2Cl)n1` reads “inactive”; that for `COc1ccccc1-n1nc(C(C)(C)C)cc1NC(=O)Nc1ccc(Cl)cc1`, “inactive”; that for `CC(C)(C)c1cc(NC(=O)Nc2ccc(Cl)cc2)n(-c2ccc(F)cc2)n1`, “Active”. On the same count and under the same terms, the result for `CC(C)(C)c1cc(NC(=O)Nc2ccc(Cl)cc2)n(-c2ccc(Cl)cc2)n1` reads “Active”; that for `CC(C)(C)c1cc(NC(=O)Nc2ccc(Cl)cc2)n(-c2ccccc2F)n1`, “Active”.

The target in the next experiment is Mitogen-activated protein kinase 14 (Mus musculus, UniProt P47811). The description is as §1.
Chain of Mitogen-activated protein kinase 14 (P47811 whole entry): as the sequence (P47811 whole entry, the tested form may be a part) above
In turn, `Cc1cccc(-n2nc(C(C)(C)C)cc2NC(=O)Nc2ccc(Cl)cc2)c1` returned a Ki of 20 nM. On the same count and under the same terms, the result for `Cc1ccc(-n2nc(C(C)(C)C)cc2NC(=O)Nc2ccc(Cl)cc2)cc1` reads 30 nM; that for `CC(C)(C)c1cc(NC(=O)Nc2ccc(Cl)cc2)n(-c2ccccc2)n1`, 100 nM; that for `Cc1ccccc1-n1nc(C(C)(C)C)cc1NC(=O)Nc1ccc(Cl)cc1`, 730 nM.
